pIC50: −log10 of the molar value. Where a SMILES comes first, the peptide text is derived from it. Bridges are numbered along the chain shown (N, C = ends). [ ]: non-standard residue; d: D form. The star is where a group is joined. Phe(4-COOH) = N[C@@H](Cc1ccc(C(=O)O)cc1)C(=O)O; Trp(7-F) = N[C@@H](Cc1c[nH]c2c(F)cccc12)C(=O)O; Bip = N[C@@H](Cc1ccc(-c2ccccc2)cc1)C(=O)O; Phe(3-F) = N[C@@H](Cc1cccc(F)c1)C(=O)O; Phe(3-Me) = Cc1cccc(C[C@H](N)C(=O)O)c1; Ala(cPent) = N[C@@H](CC1CCCC1)C(=O)O; aIle = CC[C@@H](C)[C@H](N)C(=O)O; 4Pal = N[C@@H](Cc1ccncc1)C(=O)O; 2Thi = N[C@@H](Cc1cccs1)C(=O)O; Cha = N[C@@H](CC1CCCCC1)C(=O)O; Cit = NC(=O)NCCC[C@H](N)C(=O)O; dCha = N[C@H](CC1CCCCC1)C(=O)O; Phg = N[C@H](C(=O)O)c1ccccc1; Carboxymethyl = O=C(O)C*; Orn = NCCC[C@H](N)C(=O)O; Dab = NCC[C@H](N)C(=O)O; Nva = CCC[C@H](N)C(=O)O; Dap = NC[C@H](N)C(=O)O; Propargyl = C#CC*
molecular target: T1, human PD-1 / PD-L1-Ig binding on Jurkat cell line over-expressing human PD-1 (Jurkat-PD-1) (Homo sapiens, UniProt Q15116); test: Jurkat-PD-1 Cell Binding High-Content Screening Assay (CBA); type: cell-based; settings: Jurkat-PD-1 cells, PE-labeled PD-L1-Ig 20 nM final; read-out: Jurkat HPD1_PDL1 IC50
T1 construct: expressed in transfected cells; host or cells: Jurkat
Outline: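 Cell-bound PE-labeled PD-L1-Ig (20 nM final, 1 h) measured by high-content imaging after fixation and Hoechst 33342 counterstain. Compound was applied first for 2 h at 37° C. to Jurkat cells over-expressing human PD-1 in DMEM with 10% FCS.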

T1 sequence (Q15116 25-288): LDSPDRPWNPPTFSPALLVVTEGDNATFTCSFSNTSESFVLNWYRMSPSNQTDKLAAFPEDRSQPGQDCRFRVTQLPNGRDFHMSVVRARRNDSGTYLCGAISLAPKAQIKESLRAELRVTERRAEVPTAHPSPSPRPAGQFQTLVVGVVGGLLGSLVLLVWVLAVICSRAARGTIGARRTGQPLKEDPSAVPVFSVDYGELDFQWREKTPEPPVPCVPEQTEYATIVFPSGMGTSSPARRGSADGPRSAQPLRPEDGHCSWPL

SMILES	pIC50
CC(C)C[C@H]1NC(=O)[C@H](CCCN)NC(=O)[C@H](C(C)C)NC(=O)[C@H](Cc2ccc(-c3ccccc3)cc2)NC(=O)[C@H](C(C)C)NC(=O)[C@H](Cc2c[nH]c3c(F)cccc23)NC(=O)[C@H](CC(=O)O)NC(=O)[C@H](Cc2ccc(OCC(=O)O)cc2)NC(=O)[C@H](CN)NC(=O)CSC[C@@H](C(=O)N[C@@H](CCN)C(N)=O)NC(=O)[C@H]([C@@H](C)O)NC(=O)[C@H](C(C)C)NC(=O)[C@H](CC2CCCCC2)NC(=O)[C@H](CCN)NC1=O [Compound 2020] ({CH2CO}-[Dap]Y(Carboxymethyl)D[Trp(7-F)]V[Bip]V[Orn][dL][Dab][Cha]VTC[Dab]-NH2; thioether N-14)	7.88
CC(C)C[C@H]1NC(=O)[C@H](CCCN)NC(=O)[C@H](CCCNC(N)=O)NC(=O)[C@H](Cc2ccc(-c3ccccc3)cc2)NC(=O)[C@H](c2ccccc2)NC(=O)[C@H](Cc2c[nH]c3ccccc23)NC(=O)[C@H](CC(=O)O)NC(=O)[C@H](Cc2ccc(OCC(=O)O)cc2)NC(=O)[C@H](CN)NC(=O)CSC[C@@H](C(=O)N[C@@H](C)C(N)=O)NC(=O)[C@H]([C@@H](C)O)NC(=O)[C@H](C(C)C)NC(=O)[C@H](CC2CCCCC2)NC(=O)[C@H](CCN)NC1=O [Compound 1359] ({CH2CO}-[Dap]Y(Carboxymethyl)DW[Phg][Bip][Cit][Orn][dL][Dab][Cha]VTCA-NH2; thioether N-14)	8.10
CC(C)C[C@H]1NC(=O)[C@H](CCCN)NC(=O)[C@H](CCC(=O)O)NC(=O)[C@H](Cc2ccc(-c3ccccc3)cc2)NC(=O)[C@H](C(C)C)NC(=O)[C@H](Cc2cccs2)NC(=O)[C@H](CC(=O)O)NC(=O)[C@H](Cc2ccncc2)NC(=O)[C@H](Cc2ccncc2)NC(=O)CSC[C@@H](C(=O)N[C@@H](C)C(N)=O)NC(=O)[C@H]([C@@H](C)O)NC(=O)[C@H](C(C)C)NC(=O)[C@H](CC2CCCCC2)NC(=O)[C@H](CCN)NC1=O [Compound 2203] ({CH2CO}-[4Pal][4Pal]D[2Thi]V[Bip]E[Orn][dL][Dab][Cha]VTCA-NH2; thioether N-14)	7.74
CC(C)C[C@H]1NC(=O)[C@H](CCCN)NC(=O)[C@H](CCCNC(N)=O)NC(=O)[C@H](Cc2ccc(-c3ccccc3)cc2)NC(=O)[C@H](C(C)C)NC(=O)[C@H](Cc2c[nH]c3ccccc23)NC(=O)[C@H](CC(=O)O)NC(=O)[C@H](Cc2cccc(F)c2)NC(=O)[C@H](CN)NC(=O)CSC[C@@H](C(=O)N[C@@H](C)C(N)=O)NC(=O)[C@H]([C@@H](C)O)NC(=O)[C@H](C(C)C)NC(=O)[C@H](CC2CCCCC2)NC(=O)[C@H](CCN)NC1=O [Compound 2097] ({CH2CO}-[Dap][Phe(3-F)]DWV[Bip][Cit][Orn][dL][Dab][Cha]VTCA-NH2; thioether N-14)	7.73
Cc1cccc(C[C@@H]2NC(=O)[C@H](CC(=O)O)NC(=O)[C@H](Cc3ccc(OCC(=O)O)cc3)NC(=O)[C@H](CN)NC(=O)CSC[C@@H](C(=O)N[C@@H](C)C(N)=O)NC(=O)[C@H](CCCN)NC(=O)[C@H](C(C)C)NC(=O)[C@H](CC3CCCCC3)NC(=O)[C@H](CCN)NC(=O)[C@@H](CC(C)C)NC(=O)[C@H](CCCN)NC(=O)[C@H](C(C)C)NC(=O)[C@H](Cc3ccc(-c4ccccc4)cc3)NC(=O)[C@H](C(C)C)NC2=O)c1 [Compound 1754] ({CH2CO}-[Dap]Y(Carboxymethyl)D[Phe(3-Me)]V[Bip]V[Orn][dL][Dab][Cha]V[Orn]CA-NH2; thioether N-14)	8.26
CC(C)[C@@H]1NC(=O)[C@H](Cc2c[nH]c3ccccc23)NC(=O)[C@H](CC(=O)O)NC(=O)[C@H](Cc2ccc(O)cc2)NC(=O)[C@H](CC(N)=O)NC(=O)CSC[C@@H](C(=O)N[C@@H](C)C(N)=O)NC(=O)[C@H]([C@@H](C)O)NC(=O)[C@H](C(C)C)NC(=O)[C@H](CC2CCCCC2)NC(=O)[C@H](CCN)NC(=O)[C@@H](CC2CCCCC2)NC(=O)[C@H](CCCN)NC(=O)[C@H](CCCNC(N)=O)NC(=O)[C@H](Cc2ccc(-c3ccccc3)cc2)NC1=O [Compound 1647] ({CH2CO}-NYDWV[Bip][Cit][Orn][dCha][Dab][Cha]VTCA-NH2; thioether N-14)	7.29
CC(C)C[C@H]1NC(=O)[C@H](CCCN)NC(=O)[C@H](CCC(=O)O)NC(=O)[C@H](Cc2ccc(-c3ccccc3)cc2)NC(=O)[C@H](C(C)C)NC(=O)[C@H](Cc2c[nH]c3ccccc23)NC(=O)[C@H](CC(=O)O)NC(=O)[C@H](Cc2ccc(N)cc2)NC(=O)[C@H](Cc2ccncc2)NC(=O)CSC[C@@H](C(=O)N[C@@H](C)C(N)=O)NC(=O)[C@H]([C@@H](C)O)NC(=O)[C@H](C(C)C)NC(=O)[C@H](CC2CCCCC2)NC(=O)[C@H](CCN)NC1=O [Compound 2184]	7.55
CC[C@@H](C)[C@@H]1NC(=O)[C@H](Cc2ccc(-c3ccccc3)cc2)NC(=O)[C@H](C(C)C)NC(=O)[C@H](Cc2c[nH]c3ccccc23)NC(=O)[C@H](CC(=O)O)NC(=O)[C@H](Cc2ccncc2)NC(=O)[C@H](Cc2ccc(OCC(=O)O)cc2)NC(=O)CSC[C@@H](C(=O)N[C@@H](C)C(N)=O)NC(=O)[C@H]([C@@H](C)O)NC(=O)[C@H](C(C)C)NC(=O)[C@H](CC2CCCCC2)NC(=O)[C@H](CCN)NC(=O)[C@@H](CC2CCCCC2)NC(=O)[C@H](CCCN)NC1=O [Compound 1629] ({CH2CO}-Y(Carboxymethyl)[4Pal]DWV[Bip][aIle][Orn][dCha][Dab][Cha]VTCA-NH2; thioether N-14)	7.70
C#CCOc1ccc(C[C@@H]2NC(=O)[C@H](Cc3ccc(-c4ccccc4)cc3)NC(=O)[C@H](Cc3ccc(C(=O)O)cc3)NC(=O)[C@H](Cc3cccc(C)c3)NC(=O)[C@H](CC(=O)O)NC(=O)[C@H](Cc3ccc(C(=O)O)cc3)NC(=O)[C@H](CCC)NC(=O)CSC[C@@H](C(=O)N[C@@H](CCN)C(N)=O)NC(=O)[C@H](CCC(=O)O)NC(=O)[C@H](C(C)C)NC(=O)[C@H](CC3CCCCC3)NC(=O)[C@H](CCN)NC(=O)[C@@H](CC(C)C)NC(=O)[C@H](CCCN)NC2=O)cc1 [Compound 1831] ({CH2CO}-[Nva][Phe(4-COOH)]D[Phe(3-Me)][Phe(4-COOH)][Bip]Y(Propargyl)[Orn][dL][Dab][Cha]VEC[Dab]-NH2; thioether N-14)	8.32
CC(C)C[C@H]1NC(=O)[C@H](CCCN)NC(=O)[C@H](CCCNC(N)=O)NC(=O)[C@H](Cc2ccc(-c3ccccc3)cc2)NC(=O)[C@H](CC2CCCC2)NC(=O)[C@H](Cc2c[nH]c3ccccc23)NC(=O)[C@H](CC(=O)O)NC(=O)[C@H](Cc2ccc(OCC(=O)O)cc2)NC(=O)[C@H](CN)NC(=O)CSC[C@@H](C(=O)N[C@@H](C)C(N)=O)NC(=O)[C@H]([C@@H](C)O)NC(=O)[C@H](C(C)C)NC(=O)[C@H](CC2CCCCC2)NC(=O)[C@H](CCN)NC1=O [Compound 1353] ({CH2CO}-[Dap]Y(Carboxymethyl)DW[Ala(cPent)][Bip][Cit][Orn][dL][Dab][Cha]VTCA-NH2; thioether N-14)	7.96
Cc1cccc(C[C@@H]2NC(=O)[C@H](CC(=O)O)NC(=O)[C@H](Cc3ccc(C(=O)O)cc3)NC(=O)[C@H](Cc3ccncc3)NC(=O)CSC[C@@H](C(=O)N[C@@H](C)C(N)=O)NC(=O)[C@H]([C@@H](C)O)NC(=O)[C@H](C(C)C)NC(=O)[C@H](CC3CCCCC3)NC(=O)[C@H](CCN)NC(=O)[C@@H](CC(C)C)NC(=O)[C@H](CCCN)NC(=O)[C@H](CCCNC(N)=O)NC(=O)[C@H](Cc3ccc(-c4ccccc4)cc3)NC(=O)[C@H](C(C)C)NC2=O)c1 [Compound 1190]	8.35
CC(C)C[C@@H]1NC(=O)[C@H](CCN)NC(=O)[C@@H](CC(C)C)NC(=O)[C@H](CCCN)NC(=O)[C@H](CCCNC(N)=O)NC(=O)[C@H](Cc2ccc(-c3ccccc3)cc2)NC(=O)[C@H](C(C)C)NC(=O)[C@H](Cc2c[nH]c3ccccc23)NC(=O)[C@H](CC(=O)O)NC(=O)[C@H](Cc2ccc(OCC(=O)O)cc2)NC(=O)[C@H](CN)NC(=O)CSC[C@@H](C(=O)N[C@@H](C)C(N)=O)NC(=O)[C@H]([C@@H](C)O)NC(=O)[C@H](C(C)C)NC1=O [Compound 1040] ({CH2CO}-[Dap]Y(Carboxymethyl)DWV[Bip][Cit][Orn][dL][Dab]LVTCA-NH2; thioether N-14)	7.61
CC[C@H](C)[C@@H]1NC(=O)[C@H](Cc2ccc(-c3ccccc3)cc2)NC(=O)[C@H](C(C)C)NC(=O)[C@H](Cc2c[nH]c3ccccc23)NC(=O)[C@H](CC(=O)O)NC(=O)[C@H](Cc2ccc(O)cc2)NC(=O)[C@H](CC(N)=O)NC(=O)CSC[C@@H](C(=O)N[C@@H](C)C(N)=O)NC(=O)[C@H]([C@@H](C)O)NC(=O)[C@H](C(C)C)NC(=O)[C@H](CC2CCCCC2)NC(=O)[C@H](CCCNC(=N)N)NC(=O)[C@@H](CC(C)C)NC(=O)[C@H](CCCN)NC1=O [Compound 1147] ({CH2CO}-NYDWV[Bip]I[Orn][dL]R[Cha]VTCA-NH2; thioether N-14)	7.64
Cc1cccc(C[C@@H]2NC(=O)[C@H](CN)NC(=O)CSC[C@@H](C(=O)N[C@@H](C)C(N)=O)NC(=O)[C@H]([C@@H](C)O)NC(=O)[C@H](C(C)C)NC(=O)[C@H](CC3CCCCC3)NC(=O)[C@H](CCN)NC(=O)[C@@H](CC(C)C)NC(=O)[C@H](CCCN)NC(=O)[C@H](CCCNC(N)=O)NC(=O)[C@H](Cc3ccc(-c4ccccc4)cc3)NC(=O)[C@H](C(C)C)NC(=O)[C@H](Cc3c[nH]c4ccccc34)NC(=O)[C@H](CC(=O)O)NC2=O)c1 [Compound 2109] ({CH2CO}-[Dap][Phe(3-Me)]DWV[Bip][Cit][Orn][dL][Dab][Cha]VTCA-NH2; thioether N-14)	7.41
Cc1cccc(C[C@@H]2NC(=O)[C@H](CC(=O)O)NC(=O)[C@H](Cc3ccncc3)NC(=O)[C@H](CN)NC(=O)CSC[C@@H](C(=O)N[C@@H](C)C(N)=O)NC(=O)[C@H]([C@@H](C)O)NC(=O)[C@H](C(C)C)NC(=O)[C@H](CC3CCCCC3)NC(=O)[C@H](CCN)NC(=O)[C@@H](CC(C)C)NC(=O)[C@H](CCCN)NC(=O)[C@H](CCC(=O)O)NC(=O)[C@H](Cc3ccc(-c4ccccc4)cc3)NC(=O)[C@H](C(C)C)NC2=O)c1 [Compound 1418] ({CH2CO}-[Dap][4Pal]D[Phe(3-Me)]V[Bip]E[Orn][dL][Dab][Cha]VTCA-NH2; thioether N-14)	8.09

Reference: US20250163104A1, “MACROCYCLIC IMMUNOMODULATORS” (priority 2021, published 2025)
